The text below walks through data of patent US20160279101A1, “PHARMACEUTICAL COMPOSITION FOR TREATMENT OF PNEUMONIA ASSOCIATED WITH FUSARIUM FUNGUS” (priority 2013, published 2016).

The structures appear in SMILES notation. Converted amounts (≈) assume the structure as drawn. Counter-ions that a name gives are not always drawn.

Common to all, as to assay type: cell-based
The test system of one assay is Fusarium oxysporum. As to the kind of experiment: MIC by micro-liquid dilution method (Alamar Blue assay), Fusarium oxysporum. The conditions noted are these: 2 clinical strains; 35° C., 72 hours; MIC = minimum concentration with IC not less than 80%. Also on record: unit not given here. The protocol: (§1) The MICs of each type of antifungal agent against Fusarium oxysporum and Fusarium solani were determined. That is, each fungus was cultured at 35° C. for 72 hours using, as a medium, “RPMI 1640/MOPS liquid medium supplemented with 10% Alamar Blue (registered trademark) (pH 7.0)” (see Shinobu Ishigaki et al., The Journal of the Japanese Association for Infectious Diseases, vol. 74(3) (2000) pp. 221-230) according to the micro-liquid dilution method (Alamar Blue assay), which is in accordance with the CLSI standardization and the Japanese Society for Medical Mycology method. Thereafter, O.D. was measured for investigating color change of the oxidation-reduction indicator Alamar Blue, to determine the minimum inhibitory concentration (MIC). That is, the growth inhibition rate (IC) was determined based on the O.D. value, and the minimum concentration of the agent at which an IC of not less than 80% was achieved was determined as MIC. Two strains of Fusarium oxysporum (clinically separated strains; Teikyo University Institute of Medical Mycology), and 10 strains of Fusarium solani (clinically separated strains; Institute of Dermatology (Thailand) and Teikyo University Institute of Medical Mycology) were used.
(Resazurin is reduced to fluorescent resorufin, in cell work by metabolically active cells.)

The next assay relates to Fusarium solani. Kind of assay: MIC by micro-liquid dilution method (Alamar Blue assay), Fusarium solani. Further details: unit not given here. The conditions noted are these: 10 clinical strains; 35° C., 72 hours; MIC = minimum concentration with IC not less than 80%. The protocol:
as §1

Another assay relates to Trichomonas vaginalis. Kind of assay: Growth inhibition of Trichomonas vaginalis in Trichomonas Medium F (neutral red colour, microscopy). Particulars: for MIC: clinically isolated Trichomonas vaginalis, read-out: minimum inhibitory concentration (MIC); for MIC / Color / Result of observation under the microscope: 72 hours; for Color: 37° C.; for Result of observation under the microscope: inverted microscope. The protocol:
Among the compounds represented by General Formula (1), luliconazole was selected for investigation of the effect on Trichomonas vaginalis. That is, 5×10^6 cells of clinically isolated Trichomonas vaginalis were seeded in Trichomonas Medium F, manufactured by Fuji Pharma Industrial Co., Ltd., which contains neutral red as a marker (6.5 mL, contained in a tube). Preculture was performed for 72 hours (preculture). After confirming that the Trichomonas has grown to actively produce acid and to thereby cause changing of the color of neutral red to yellow, 100 μL of the obtained preculture liquid was added to Trichomonas Medium F to be used for main culture. To resulting mixture, 0.5 mL of each test liquid was further added. The number of Trichomonas cells in the preculture liquid at this time was 1.5×10^5 cells/mL. Three types of test liquids, that is, solutions of luliconazole in 10% methanol/saline solution at luliconazole concentrations of 200 μM (final concentration, 35.2 μM), 100 μM (final concentration, 17.6 μM) and 50 μM (final concentration, 8.8 μM), were provided. A control was prepared by adding 0.5 mL of a vehicle as a test liquid. As the vehicle, 10% methanol/saline solution (final concentration, 0 μM) was used. After the addition, each resulting mixture was stirred well, and culture was carried out at 37° C. for 72 hours. Thereafter, the color was judged, and the condition of Trichomonas cells was observed under an inverted microscope.
The same study as in Example 1 was carried out except that lanoconazole was used instead of luliconazole.

For assay [1], the system named is Chlamydia trachomatis (D/UW3/Cx). As to the kind of experiment: Anti-intracellular parasite action: Chlamydia trachomatis cultured in HeLa 229 cells, fluorescent staining of inclusion bodies. The protocol:
FIG. 1 is a diagram (photographs) illustrating the results of observation of chlamydial inclusion bodies after luliconazole treatment, which observation was carried out by fluorescent staining using a Chlamydia FA reagent “Seiken”.
Using Chlamydia trachomatis (D/UW3/Cx), the anti-intracellular parasite action was examined. That is, Chlamydia trachomatis was cultured using HeLa 229 cells as a host in the presence of a 2-fold dilution series of 8 to 64 μg/mL luliconazole. The culture was carried out using, as a medium, MEM supplemented with 1 μg/mL cyclohexamide and 8% heat-inactivated FBS, at 37° C. under 5% carbon dioxide for 72 hours. Thereafter, inclusion bodies were fluorescently stained in apple green using a Chlamydia FA reagent “Seiken” (manufactured by Denka Seiken Co., Ltd.), and observed under a fluorescence microscope.

The mark [2] stands for this setting: final concentration 8.8 μM, neutral red marker.
Where [3] appears, read: final concentration 17.6 μM, neutral red marker.
Setting [4] is: final concentration 35.2 μM, neutral red marker (yellow = acid production by growing Trichomonas).

As for `C=C1CCN([C@H](C)[C@](O)(Cn2cncn2)c2ccc(F)cc2F)CC1` [EFCZ, Efinaconazole], in the assay on Fusarium oxysporum, the “MIC, F. oxysporum (2), lower line of each agent (range)” value (“MIC, F. oxysporum (2), lower line” below) is listed as 0.25-1.

Consider `C[C@@H](c1ncncc1F)[C@](O)(Cn1cncn1)c1ccc(F)cc1F` [VCZ, Voriconazole], for which the “MIC, F. oxysporum (2), lower line” value against Fusarium oxysporum is listed as over 4.

Turning to `CCC(C)n1ncn(-c2ccc(N3CCN(c4ccc(OCC5COC(Cn6cncn6)(c6ccc(Cl)cc6Cl)O5)cc4)CC3)cc2)c1=O` (stereo not drawn) [ITZ, Itraconazole], the “MIC, F. oxysporum (2), lower line” value in the assay with Fusarium oxysporum is given as over 4. The “MIC, F. solani (10), lower line of each agent (range)” value (“MIC, F. solani (10), lower line” for short) against Fusarium solani is over 4.

Consider `CC(=O)N1CCN(c2ccc(OCC3COC(Cn4ccnc4)(c4ccc(Cl)cc4Cl)O3)cc2)CC1` (stereo not drawn) [KCZ, Ketoconazole], for which, in the assay with Fusarium oxysporum, the “MIC, F. oxysporum (2), lower line” value is reported as over 4.

Consider `N#C/C(=C1/SCC(c2ccccc2Cl)S1)n1ccnc1` (stereo not drawn) [lanoconazole, 4-(2-chlorophenyl)-1,3-dithiolan-2-ylidene-1-imidazolylacetonitrile], for which the “MIC, F. oxysporum (2), lower line” value against Fusarium oxysporum was 0.063-0.13. Also, the “MIC, F. solani (10), lower line” value in the assay with Fusarium solani is 0.063-0.25. Besides, the MIC in the assay on Trichomonas vaginalis was about 17.6 µM (≈ 5.63 µg/mL). The results for the Color result in the assay with Trichomonas vaginalis (setting [2]), with Trichomonas vaginalis (setting [3]) and with Trichomonas vaginalis (setting [4]) were “Yellow”, “Red” and “Red”, respectively. In addition, in the assay on Trichomonas vaginalis (final concentration 35.2 μM), the “Result of observation under the microscope” value was “No Trichomonas cell was found”. Besides, the “growth of Trichomonas” value in the assay with Trichomonas vaginalis (same study as Example 1, no concentration stated) was “inhibit the growth of Trichomonas”.

Consider `c1ccc(-c2ccc(C(c3ccccc3)n3ccnc3)cc2)cc1` (stereo not drawn) [BFZ, Bifonazole], for which, in the assay on Fusarium oxysporum, the “MIC, F. oxysporum (2), lower line” value is over 4. Besides, the “MIC, F. solani (10), lower line” value with Fusarium solani was over 4.

On to `CCC(C)(C)c1ccc(CC(C)CN2C[C@@H](C)O[C@@H](C)C2)cc1` (stereo partly drawn) [AMO, Amorolfine hydrochloride], for which the “MIC, F. oxysporum (2), lower line” value in the assay with Fusarium oxysporum was over 4. Besides, the “MIC, F. solani (10), lower line” value in the assay with Fusarium solani is given as over 4.

Consider `Clc1ccccc1C(c1ccccc1)(c1ccccc1)n1ccnc1` [CTZ, Clotrimazole], for which, in the assay with Fusarium oxysporum, the “MIC, F. oxysporum (2), lower line” value is on record as over 4. In addition, the “MIC, F. solani (10), lower line” value in the assay with Fusarium solani was over 4.

In the case of `OC(Cn1cncn1)(Cn1cncn1)c1ccc(F)cc1F` [FCZ, Fluconazole], the “MIC, F. oxysporum (2), lower line” value with Fusarium oxysporum is over 4. In the assay with Fusarium solani, the “MIC, F. solani (10), lower line” value is listed as over 4.

In the case of `N#C/C(=C1/SC[C@@H](c2ccc(Cl)cc2Cl)S1)n1ccnc1` [luliconazole, (R)-(−)-(E)-[4-(2,4-dichlorophenyl)-1,3-dithiolan-2-ylidene]-1-imidazolylacetonitrile], in the assay with Fusarium oxysporum, the “MIC, F. oxysporum (2), lower line” value is given as 0.016-0.031. In addition, in the assay with Fusarium solani, the “MIC, F. solani (10), lower line” value is recorded as 0.016-0.063. Moreover, the “observation of chlamydial inclusion bodies” value was “chlamydial inclusion bodies were found” in assay [1] (8 μg/mL, FIG. 1 panel (A)); “chlamydial inclusion bodies were found” in assay [1] (16 μg/mL, FIG. 1 panel (B)); “no inclusion body was found” in assay [1] (32 μg/mL, FIG. 1 panel (C)). Besides, the MIC in assay [1] (Chlamydia trachomatis, HeLa 229 host cells, 72 hours, 2-fold dilution series 8 to 64 μg/mL, read-out: MIC against Chlamydia trachomatis) was 32 µg/mL (≈ 90.3 µM); in the assay on Trichomonas vaginalis it was about 8.8 µM (≈ 3.12 µg/mL). For the same molecule, the “growth of Trichomonas” value in the assay on Trichomonas vaginalis (8.8 μM) was “inhibited the growth of Trichomonas”. Also, the Color entry is recorded as “Yellow” in the assay on Trichomonas vaginalis (setting [2]), “Red” with Trichomonas vaginalis (setting [3]) and “Red” in the assay on Trichomonas vaginalis (setting [4]). Moreover, the “Result of observation under the microscope” value in the assay on Trichomonas vaginalis (final concentration 17.6 μM) and with Trichomonas vaginalis (final concentration 35.2 μM) was “No Trichomonas cell was found” throughout.

As for `C[C@@H]1[C@H](O)[C@@H](C)/C=C/C=C/C=C/C=C/C=C/C=C/C=C/[C@H](O[C@@H]2O[C@H](C)[C@@H](O)[C@H](N)[C@@H]2O)C[C@@H]2O[C@](O)(C[C@@H](O)C[C@@H](O)[C@H](O)CC[C@@H](O)C[C@@H](O)CC(=O)O[C@H]1C)C[C@H](O)[C@H]2C(=O)O` [AMB, Amphotericin B], in the assay on Fusarium solani, the “MIC, F. solani (10), lower line” value is on record as 2-4.

Regarding `Clc1ccc(COC(Cn2ccnc2)c2ccc(Cl)cc2Cl)c(Cl)c1` (stereo not drawn) [MCZ, Miconazole nitrate], the “MIC, F. oxysporum (2), lower line” value with Fusarium oxysporum was over 4.
